Holding throughout (format): in vivo, human
The test system of assay [1] is nigrostriatal degeneration or denervation (DAT loss). Kind of assay: Follow-up DAT-scan of phase I participants (Example 4). An excerpt: In the study of the present Example 4, […] of the participants from the study of Example 2 (9 receiving placebo and 11 receiving NR) were examined by a second DAT-scan 1-1.5 year after the completion of the study, for entry into the study of Example 3. […] FIG. 15 represents box plots showing the change (delta) of the DAT-scan tracer uptake in the posterior putamen between the second and first examination (delta=scan2−scan1). […] The data is normally distributed (Shapiro-Wilk normality test).

A further assay has as its system gene expression in PBMCs. Kind of assay: RNA-seq differential gene expression in PBMCs. The method, then:
For all subjects at both visits, total RNA was extracted from muscle biopsy tissue and PBMC homogenate using RNeasy plus mini kit (Qiagen) with on-column DNase treatment according to manufacturer's protocol. The final elution was made in 45 ul of dH2O. The concentration and integrity of the total RNA were estimated by Ribogreen assay (Thermo Fisher Scientific), and Fragment Analyzer (Advanced Analytical), respectively, and 10 ng of total RNA was used for downstream RNA-seq applications using the SMARTer Stranded Total RNA-Seq Kit v2—Pico Input Mammalian Kit (IlluminaTakara Bio USA, Inc., Mountian View, CA) as per manufacturer's recommended protocol. Library quantity was assessed by Picogreen Assay (Thermo Fisher Scientific), and the library quality was estimated by utilizing a DNA High Sense chip on a Caliper Gx (Perkin Elmer). Accurate quantification of the final libraries for sequencing applications was determined using the qPCR-based KAPA Biosystems Library Quantification kit (Kapa Biosystems, Inc.). Each library pooled equimolar prior to clustering. One hundred bp paired-end sequencing was performed on an Illumina NovaSeq S4 sequencer (Illumina, Inc.). Two subjects were discarded from the PBMC samples and two from the muscle samples due to either insufficient tissue quantity, participant drop out/lack of sample, or being outliers in expression.
FASTQ files were assessed using fastQC version 0.11.9. Quantification at the transcript level was calculated using Salmon version 1.3.0 with fragment-level GC bias correction against the GENCODE version 35, with the whole genome as decoy sequence. Transcript-level quantification was collapsed onto gene-level using the tximport R package version 1.8.0. Genes in non-canonical chromosomes and scaffolds and transcripts encoded by the mitochondrial genome were filtered out, together with non-protein-coding genes. Low-expressed genes were likewise removed from downstream analyses (expression below 10 reads for 75% of the samples). PBMC and muscle datasets were analysed independently. For PBMC samples, cell type composition was assessed employing ABIS. Differential gene expression was performed using the DESeq2 R package version 1.22.2. The generalized linear model formula accounted for both interindividual variability between subjects and the normal course of the experiment (baseline for each subject and baseline for the time-course). Multiple hypothesis testing was performed with the default automatic filtering of DESeq2 followed by false discovery rate (FDR) calculation by the Benjamini-Hochberg procedure.

Assay [2] deals with gene expression in muscle. Kind of assay: RNA-seq differential gene expression in muscle tissue. The following applies: NR vs placebo. The method, then: For all subjects at both visits, total RNA was extracted from muscle biopsy tissue and PBMC homogenate using RNeasy plus mini kit (Qiagen) with on-column DNase treatment according to manufacturer's protocol. The final elution was made in 45 ul of dH2O. The concentration and integrity of the total RNA were estimated by Ribogreen assay (Thermo Fisher Scientific), and Fragment Analyzer (Advanced Analytical), respectively, and 10 ng of total RNA was used for downstream RNA-seq applications using the SMARTer Stranded Total RNA-Seq Kit v2-Pico Input Mammalian Kit (IlluminaTakara Bio USA, Inc., Mountian View, CA) as per manufacturer's recommended protocol. Library quantity was assessed by Picogreen Assay (Thermo Fisher Scientific), and the library quality was estimated by utilizing a DNA High Sense chip on a Caliper Gx (Perkin Elmer). Accurate quantification of the final libraries for sequencing applications was determined using the qPCR-based KAPA Biosystems Library Quantification kit (Kapa Biosystems, Inc.). Each library pooled equimolar prior to clustering. One hundred bp paired-end sequencing was performed on an Illumina NovaSeq S4 sequencer (Illumina, Inc.). Two subjects were discarded from the PBMC samples and two from the muscle samples due to either insufficient tissue quantity, participant drop out/lack of sample, or being outliers in expression. […] FASTQ files were assessed using […] version 0.11.9. Quantification at the transcript level was calculated using Salmon version 1.3.0 with fragment-level GC bias correction against the GENCODE version 35, with the whole genome as decoy sequence. Transcript-level quantification was collapsed onto gene-level using the tximport R package version 1.8.0. Genes in non-canonical chromosomes and scaffolds and transcripts encoded by the mitochondrial genome were filtered out, together with non-protein-coding genes. Low-expressed genes were likewise removed from downstream analyses (expression below 10 reads for 75% of the samples). PBMC and muscle datasets were analysed independently. For PBMC samples, cell type composition was assessed employing ABIS. Differential gene expression was performed using the DESeq2 R package version 1.22.2. The generalized linear model formula accounted for both interindividual variability between subjects and the normal course of the experiment (baseline for each subject and baseline for the time-course). Multiple hypothesis testing was performed with the default automatic filtering of DESeq2 followed by false discovery rate (FDR) calculation by the Benjamini-Hochberg procedure.

Regarding `NC(=O)c1ccc[n+]([C@@H]2O[C@H](CO)[C@@H](O)[C@H]2O)c1` [NR, nicotinamide riboside], the “progression of the DAT loss between first and second DAT-scan, NR vs placebo group” value in assay [1] (second scan 1-1.5 year after the study, posterior putamen, t-test p=0.35) is on record as “no significant difference”. Further, in assay [1] (smaller difference between the two examinations, p=0.35), the “trend in progression of nigrostriatal denervation in NR group” value is recorded as “non-significant trend for decreased progression”. In the assay on gene expression in PBMCs (NR vs placebo), the “BLOC1S2 expression in PBMCs” value is reported as “upregulation”; the “functional enrichment in PBMCs: ribosomal, proteasomal, lysosomal and mitochondrial (oxidative phosphorylation) pathways” value is on record as “highly significant upregulation”; the “genes encoding known NAD biosynthetic enzymes including NMRK1” value is “No significant changes”; the “number of genes significantly associated with NR supplementation in PBMCs” value worked out at 13 genes. Also, the “Direction of pathway enrichment (MitoCarta v3.0): mtRNA metabolism” value in the assay with gene expression in PBMCs (P 0.003136, corrected P 0.13170171) is recorded as “DOWN”. Further, the “Direction of pathway enrichment (MitoCarta v3.0): mt-tRNA modifications” value with gene expression in PBMCs (P 0.009994, corrected P 0.209874) is on record as “DOWN”. Besides, the “Direction of pathway enrichment (MitoCarta v3.0): Cl assembly factors” value with gene expression in PBMCs (P 0.013122, corrected P 0.183708) is recorded as “DOWN”. Besides, the “Direction of pathway enrichment (MitoCarta v3.0): mtRNA granules” value in the assay with gene expression in PBMCs (P 0.018336, corrected P 0.192528) is “DOWN”. The “Direction of pathway enrichment (MitoCarta v3.0): Vitamin metabolism” value in the assay with gene expression in PBMCs (P 0.02605831, corrected P 0.21888977) was “DOWN”. Also, in the assay on gene expression in PBMCs (P 0.027256, corrected P 0.190792), the “Direction of pathway enrichment (MitoCarta v3.0): Mitochondrial ribosome assembly” value is on record as “DOWN”. Also, in the assay on gene expression in PBMCs (P 0.03548, corrected P 0.21288), the “Direction of pathway enrichment (MitoCarta v3.0): mt-tRNA synthetases” value is “DOWN”. The “Direction of pathway enrichment (MitoCarta v3.0): OXPHOS assembly factors” value in the assay on gene expression in PBMCs (P 0.04239743, corrected P 0.2225865) is “DOWN”. The “association with estimated cell type proportions in PBMC samples” value in the assay with gene expression in PBMCs (p>0.5) is given as “did not show a significant association”. In assay [2], the “KLF2 expression in muscle” value was “substantial upregulation”; the “expression of PARP15, AMT, FARS2, TMEM242 in muscle” value is listed as “upregulation”; the “gene set enrichment in muscle: proteasomal function, RNA transport and stability” value is recorded as “upregulation”. The “number of differentially expressed genes in muscle tissue” value in assay [2] (between visit differences, FDR<0.05) was 58 genes.

The values are drawn from patent US20240366648A1, “NAD-AUGMENTATION THERAPY FOR PARKINSON'S DISEASE” (Vestlandets Innovasjonsselskap AS (VIS), priority 2021, published 2024).
